Experimental data published in patent US20210369853A1, “TARGETED PROTEASE DEGRADATION PLATFORM” (EUBULUS BIOTHERAPEUTICS INC., priority 2018, published 2021).

test system: Human Monocytic Leukemia MV4-11; experiment: Cell proliferation experiment (Alarm blue, 72 h, EC50); type: cell-based; details: Homo sapiens, MV4-11, MV4;11 cells
Method: (2.1) Cell Proliferation Experiment:
Reagents: RPMI-1640 medium, McCoy's 5A medium, IMDM medium, MEM medium, L-15 medium, fetal bovine serum, Penicillin-Streptomycin double antibody, trypsin, etc., 2-mercaptoethanol, NEAA, pyruvate, etc.
The cells were cultured in conventional ways, and the cells should be passed at least for at least 2 generations before plating. Cells at the logarithmic growth phase are collected, prepared into single cell suspensions and counted. The concentration of cells was adjusted to the desired concentration, and cells were inoculated into a 96-well cell culture plate at 100 μl per well. 100 μL of complete medium of the test compound were added to each well, set up 2 duplicates for each concentration, and diluted with a 5-fold gradient, and continue to culture for 72 h. All cells were subjected to EC50 test for corresponding samples.
The fluorescence intensity of each well was detected using the Alarm blue method, and EC50 was calculated.
EC50 was calculated according to the following formula:
Y=Max+(Min−Max)/[1+(X/EC50)×Slope]
wherein Min, Max and Slope represent the minimum, maximum and slope respectively.

Row | SMILES | EC50 [µM]
1 | CC[C@@H]1C(=O)N(C)c2cnc(Nc3ccc(C(=O)NCCOCCNCCCCCCC(=O)Nc4cccc5c4CN(C4CCC(=O)NC4=O)C5=O)cc3OC)nc2N1Cc1ccc(Br)cc1 (stereo partly drawn) [UB-180653] | 0.1 to 1
2 | Cc1ncsc1-c1ccc(CNC(=O)[C@@H]2C[C@@H](O)CN2C(=O)[C@@H](NC(=O)COCCCCNC(=O)c2ccc(Nc3ncc4c(n3)-c3ccc(Cl)cc3C(c3c(F)cccc3F)=NC4)cc2)C(C)(C)C)cc1 [UB-180558] | 0.1 to 1
3 | CC[C@@H]1C(=O)N(C)c2cnc(Nc3ccc(C(=O)NCCOCCNCC(=O)Nc4cccc5c4CN(C4CCC(=O)NC4=O)C5=O)cc3OC)nc2N1C1CCCC1 (stereo partly drawn) [UB-180705] | 0.01 to 0.1
4 | Cc1ncsc1-c1ccc(CNC(=O)[C@@H]2C[C@@H](O)CN2C(=O)[C@@H](NC(=O)COCCOCCOCCNC(=O)[C@]2(Cc3cccc(Nc4nccs4)n3)CC[C@@H](Oc3cccc(Cl)c3F)CC2)C(C)(C)C)cc1 [UB-180584] | 0.1 to 1
5 | COc1cc(C(=O)NCCOCCOCCOCCNCCC(=O)Nc2cccc3c2CN(C2CCC(=O)NC2=O)C3=O)ccc1Nc1ncc2c(n1)N(C(C)C)[C@H](C)C(=O)N2C (stereo partly drawn) [UB-180702] | 0.01 to 0.1
6 | Cc1ncsc1-c1ccc(CNC(=O)[C@@H]2C[C@@H](O)CN2C(=O)[C@@H](NC(=O)CCOCCOCCNC(=O)[C@]2(Cc3cccc(Nc4nccs4)n3)CC[C@@H](Oc3cccc(Cl)c3F)CC2)C(C)(C)C)cc1 [UB-180599] | > 1
7 | CC[C@@H]1C(=O)N(C)c2cnc(Nc3ccc(C(=O)NCc4cn(CCNCCCC(=O)Nc5cccc6c5CN(C5CCC(=O)NC5=O)C6=O)nn4)cc3OC)nc2N1Cc1ccc(Cl)s1 (stereo partly drawn) [UB-180715] | 0.01 to 0.1
8 | CC[C@@H]1C(=O)N(C)c2cnc(Nc3ccc(C(=O)NCCOCCOCCOCCNCC(=O)Nc4cccc5c4CN(C4CCC(=O)NC4=O)C5=O)cc3OC)nc2N1Cc1ccc(Br)cc1 (stereo partly drawn) [UB-180664] | 0.01 to 0.1
9 | Cc1ncsc1-c1ccc(CNC(=O)[C@@H]2C[C@@H](O)CN2C(=O)[C@@H](NC(=O)COCCNC(=O)c2ccc(Nc3ncc4c(n3)-c3ccc(Cl)cc3C(c3c(F)cccc3F)=NC4)cc2)C(C)(C)C)cc1 [UB-180532] | 0.1 to 1
10 | CC[C@@H]1c2c(C#N)ncn2-c2cnc(Nc3ccc(C(=O)NCCOCCOCCOCCNCCC(=O)Nc4cccc5c4CN(C4CCC(=O)NC4=O)C5=O)cc3OC)nc2N1C1CCCC1 (stereo partly drawn) [UB-180700] | 0.1 to 1
11 | O=C1CCC(N2Cc3c(NC(=O)CCNCCOCCOCCOCCNC(=O)c4ccc(Nc5ncc6c(n5)-c5ccc(Cl)cc5C(c5c(F)cccc5F)=NC6)cc4)cccc3C2=O)C(=O)N1 (stereo not drawn) [UB-180728] | 0.1 to 1
12 | CC[C@@H]1C(=O)N(C)c2cnc(Nc3ccc(C(=O)NCc4cn(CCNCCCC(=O)Nc5cccc6c5CN(C5CCC(=O)NC5=O)C6=O)nn4)cc3OC)nc2N1Cc1ccc(Br)cc1 (stereo partly drawn) [UB-180676] | 0.01 to 0.1
13 | CC[C@@H]1C(=O)N(C)c2cnc(Nc3ccc(C(=O)NCCNCCC(=O)Nc4cccc5c4CN(C4CCC(=O)NC4=O)C5=O)cc3OC)nc2N1Cc1ccc(Br)cc1 (stereo partly drawn) [UB-180683] | > 1
14 | CC[C@@H]1C(=O)N(C)c2cnc(Nc3ccc(C(=O)NCCOCCOCCNCCC(=O)N[C@H](C(=O)N4C[C@H](O)C[C@H]4C(=O)NCc4ccc(-c5scnc5C)cc4)C(C)(C)C)cc3OC)nc2N1C1CCCC1 [UB-180619] | > 1
15 | CC[C@@H]1C(=O)N(C)c2cnc(Nc3ccc(C(=O)NCCOCCNCCCC(=O)Nc4cccc5c4CN(C4CCC(=O)NC4=O)C5=O)cc3OC)nc2N1C1CCCC1 (stereo partly drawn) [UB-180662] | 0.01 to 0.1
16 | Cc1ncsc1-c1ccc(CNC(=O)[C@@H]2C[C@@H](O)CN2C(=O)[C@@H](NC(=O)COCCCNC(=O)[C@]2(Cc3cccc(Nc4nccs4)n3)CC[C@@H](Oc3cccc(Cl)c3F)CC2)C(C)(C)C)cc1 [UB-180585] | > 1
17 | Cc1ncsc1-c1ccc(CNC(=O)[C@@H]2C[C@@H](O)CN2C(=O)[C@@H](NC(=O)CCCNC(=O)[C@]2(Cc3cccc(Nc4nccs4)n3)CC[C@@H](Oc3cccc(Cl)c3F)CC2)C(C)(C)C)cc1 [UB-180583] | 0.1 to 1
18 | CC[C@@H]1C(=O)N(C)c2cnc(Nc3ccc(C(=O)NCCNCC(=O)Nc4cccc5c4CN(C4CCC(=O)NC4=O)C5=O)cc3OC)nc2N1Cc1ccc(Cl)s1 (stereo partly drawn) [UB-180695] | 0.01 to 0.1
19 | Cc1ncsc1-c1ccc(CNC(=O)[C@@H]2C[C@@H](O)CN2C(=O)[C@@H](NC(=O)COCCOCCNC(=O)c2ccc(Nc3ncc4c(n3)-c3ccc(Cl)cc3C(c3c(F)cccc3F)=NC4)cc2)C(C)(C)C)cc1 [UB-180533] | 0.1 to 1

Results, then the compound that gave them:

Row | EC50 [µM] | SMILES
20 | 0.01 to 0.1 | CC[C@@H]1C(=O)N(C)c2cnc(Nc3ccc(C(=O)NCCNCCOCCOCCOCC(=O)Nc4cccc5c4CN(C4CCC(=O)NC4=O)C5=O)cc3OC)nc2N1C1CCCC1 (stereo partly drawn) [UB-180815]
21 | 0.01 to 0.1 | CC[C@@H]1C(=O)N(C)c2cnc(Nc3ccc(C(=O)NC4CCN(CCOCCN(CC(=O)Nc5cccc6c5CN(C5CCC(=O)NC5=O)C6=O)C(C)=O)CC4)cc3OC)nc2N1C1CCCC1 (stereo partly drawn) [UB-180835]
22 | 0.1 to 1 | O=C1CCC(N2Cc3c(NC(=O)CCNCCOCCOCCOCCNC(=O)[C@]4(Cc5cccc(Nc6nccs6)n5)CC[C@@H](Oc5cccc(Cl)c5F)CC4)cccc3C2=O)C(=O)N1 (stereo partly drawn) [UB-180731]
23 | > 1 | Cc1ncsc1-c1ccc(CNC(=O)[C@@H]2C[C@@H](O)CN2C(=O)[C@@H](NC(=O)CNCCOCCOCCOCCNC(=O)[C@]2(Cc3cccc(Nc4nccs4)n3)CC[C@@H](Oc3cccc(Cl)c3F)CC2)C(C)(C)C)cc1 [UB-180783]
24 | 0.1 to 1 | O=C1CCC(N2Cc3c(NC(=O)COCCOCCOCCNCCOCCNC(=O)[C@]4(Cc5cccc(Nc6nccs6)n5)CC[C@@H](Oc5cccc(Cl)c5F)CC4)cccc3C2=O)C(=O)N1 (stereo partly drawn) [UB-180799]
25 | 0.01 to 0.1 | CC[C@@H]1C(=O)N(C)c2cnc(Nc3ccc(C(=O)NC4CCN(CCOCCNCC(=O)Nc5cccc6c5CN(C5CCC(=O)NC5=O)C6=O)CC4)cc3OC)nc2N1Cc1ccc(C)s1 (stereo partly drawn) [UB-180746]
26 | 0.01 to 0.1 | CC[C@@H]1C(=O)N(C)c2cnc(Nc3ccc(C(=O)NC4CCN(CCOCCNCC(=O)Nc5cccc6c5CN(C5CCC(=O)NC5=O)C6=O)CC4)cc3OC)nc2N1Cc1cc(Cl)cs1 (stereo partly drawn) [UB-180767]
27 | > 1 | Cc1ncsc1-c1ccc(CNC(=O)[C@@H]2C[C@@H](O)CN2C(=O)[C@@H](NC(=O)CCNCCn2cc(COCCOCCNC(=O)c3ccc(Nc4ncc5c(n4)-c4ccc(Cl)cc4C(c4c(F)cccc4F)=NC5)cc3)nn2)C(C)(C)C)cc1 [UB-180786]
28 | 0.1 to 1 | CN(CCOCCOCCOCCNC(=O)[C@]1(Cc2cccc(Nc3nccs3)n2)CC[C@@H](Oc2cccc(Cl)c2F)CC1)CC(=O)Nc1cccc2c1CN(C1CCC(=O)NC1=O)C2=O (stereo partly drawn) [UB-180836]
29 | 0.01 to 0.1 | CC[C@@H]1C(=O)N(C)c2cnc(Nc3ccc(C(=O)NCCNCCOCCOCCOCCC(=O)Nc4cccc5c4CN(C4CCC(=O)NC4=O)C5=O)cc3OC)nc2N1C1CCCC1 (stereo partly drawn) [UB-180820]
30 | > 1 | Cc1ncsc1-c1ccc(CNC(=O)[C@@H]2C[C@@H](O)CN2C(=O)[C@@H](NC(=O)COCCNCCn2cc(COCCOCCNC(=O)c3ccc(Nc4ncc5c(n4)-c4ccc(Cl)cc4C(c4c(F)cccc4F)=NC5)cc3)nn2)C(C)(C)C)cc1 [UB-180788]
31 | 0.1 to 1 | O=C1CCC(N2Cc3c(NC(=O)CCCCCNCCOCCOCCOCCNC(=O)[C@]4(Cc5cccc(Nc6nccs6)n5)CC[C@@H](Oc5cccc(Cl)c5F)CC4)cccc3C2=O)C(=O)N1 (stereo partly drawn) [UB-180771]
32 | < 0.01 | CC[C@@H]1C(=O)N(C)c2cnc(Nc3ccc(C(=O)NCc4cn(CCNCCOCC(=O)Nc5cccc6c5CN(C5CCC(=O)NC5=O)C6=O)nn4)cc3OC)nc2N1Cc1ccc(C)s1 (stereo partly drawn) [UB-180764]
33 | 0.1 to 1 | O=C1CCC(N2Cc3c(NC(=O)CNCCOCCn4cc(CNC(=O)c5ccc(Nc6ncc7c(n6)-c6ccc(Cl)cc6C(c6c(F)cccc6F)=NC7)cc5)nn4)cccc3C2=O)C(=O)N1 (stereo not drawn) [UB-180743]
34 | > 1 | Cc1ncsc1-c1ccc(CNC(=O)[C@@H]2C[C@@H](O)CN2C(=O)[C@@H](NC(=O)CCNCCOCCOCCOCCNC(=O)c2ccc(Nc3ncc4c(n3)-c3ccc(Cl)cc3C(c3c(F)cccc3F)=NC4)cc2)C(C)(C)C)cc1 [UB-180780]
35 | 0.1 to 1 | O=C1CCC(N2Cc3c(NC(=O)COCCNCCn4cc(CNC(=O)[C@]5(Cc6cccc(Nc7nccs7)n6)CC[C@@H](Oc6cccc(Cl)c6F)CC5)nn4)cccc3C2=O)C(=O)N1 (stereo partly drawn) [UB-180744]
36 | 0.1 to 1 | O=C1CCC(N2Cc3c(NC(=O)COCCOCCOCCNCCNC(=O)[C@]4(Cc5cccc(Nc6nccs6)n5)CC[C@@H](Oc5cccc(Cl)c5F)CC4)cccc3C2=O)C(=O)N1 (stereo partly drawn) [UB-180795]
37 | 0.1 to 1 | O=C1CCC(N2Cc3c(NC(=O)CNCCOCCN4CCN(CCNC(=O)c5ccc(Nc6ncc7c(n6)-c6ccc(Cl)cc6C(c6c(F)cccc6F)=NC7)cc5)CC4)cccc3C2=O)C(=O)N1 (stereo not drawn) [UB-180811]
38 | > 1 | Cc1ncsc1-c1ccc(CNC(=O)[C@@H]2C[C@@H](O)CN2C(=O)[C@@H](NC(=O)CCNCCn2cc(COCCOCCOCCNC(=O)[C@]3(Cc4cccc(Nc5nccs5)n4)CC[C@@H](Oc4cccc(Cl)c4F)CC3)nn2)C(C)(C)C)cc1 [UB-180789]
39 | 0.01 to 0.1 | CC[C@@H]1C(=O)N(C)c2cnc(Nc3ccc(C(=O)NC4CCN(CCOCCN(CC(=O)Nc5cccc6c5CN(C5CCC(=O)NC5=O)C6=O)C(N)=O)CC4)cc3OC)nc2N1C1CCCC1 (stereo partly drawn) [UB-180840]

same assay, conditions: MV4;11 cells

Row | EC50 [µM] | SMILES
40 | > 1 | O=C1CCC(N2Cc3c(NC(=O)CCNCCOCCn4cc(CNC(=O)c5ccc(Nc6ncc7c(n6)-c6ccc(Cl)cc6C(c6c(F)cccc6F)=NC7)cc5)nn4)cccc3C2=O)C(=O)N1 (stereo not drawn) [UB-180748]
41 | 0.01 to 0.1 | CC[C@@H]1C(=O)N(C)c2cnc(Nc3ccc(C(=O)NC4CCN(CCOCCNCC(=O)Nc5cccc6c5CN(C5CCC(=O)NC5=O)C6=O)CC4)cc3OC)nc2N1Cc1ccc(C)s1 (stereo partly drawn) [UB-180747]
42 | 0.1 to 1 | O=C1CCC(N2Cc3c(NC(=O)CCNCCOCCn4cc(CNC(=O)c5ccc(Nc6ncc7c(n6)-c6ccc(Cl)cc6C(c6c(F)cccc6F)=NC7)cc5)nn4)cccc3C2=O)C(=O)N1 (stereo not drawn) [UB-180738]
